From US11786533B2, “Use of EZH2 inhibitors for treating cancer” (Epizyme, Inc., priority 2016, dated 2023)

Tests used:
Animal models = assay: In vivo efficacy in animal models
[1] = tested on: genetically defined cancer cells; assay: Target methyl mark inhibition and killing of cancer cells in vitro; format: cell-based
Oral bioavailability = format: in vivo

SMILES: CCN(c1cc(-c2ccc(CN3CCOCC3)cc2)cc(C(=O)NCc2c(C)cc(C)[nH]c2=O)c1C)C1CCOCC1 [Compound 44]
- in vivo efficacy following inhibition of target methyl mark (Animal models): sustained in vivo efficacy
- target methyl mark inhibition resulting in killing of cancer cells [1]: killing of genetically defined cancer cells in vitro
- oral bioavailability (Oral bioavailability): orally bioavailable
